Experimental data taken from PMC4839570, “Novel Anthra[1,2-c][1,2,5]Thiadiazole-6,11-Diones as Promising Anticancer Lead Compounds: Biological Evaluation, Characterization & Molecular Targets Determination” (PLoS ONE, 2016).
Read-outs that look alike come from different tables or passages of the source.

Tests used:
[1] = tested on: U251; test: JFCR-39 cytotoxicity screen; type: cell-based
[2] = tested on: NCI-H23; test: JFCR-39 cytotoxicity screen; type: cell-based
[3] = tested on: NCI 60 human cancer cell lines; test: NCI-60 screen, means, ranges and selectivity over panels; type: cell-based; conditions: for GI50: Homo sapiens
Experimental: Both NSC745885 and NSC757963 satisfied the pre-determined threshold inhibition criteria of the NCI-60 One-Dose Screening, so they were tested against the panels of 60 cancer cell lines of NCI (NCI-60) and 39 cancer cell lines of JFCR (JFCR-39), each cell line was tested at five small doses of our compounds. Results are expressed as the 50% growth inhibition concentration (GI50), the 50% lethal concentration (LC50) and the total growth inhibition (TGI), compared to the values of untreated control cells.
To characterize the selectivity of NSC745885 and NSC757963 further among the different types of cancer, we determined their selectivity ratios towards each cell line subpanel used in the cytotoxicity experiments. […] The promising activity of this compound is evident from the small mean GI50 values. […] The strongest activity was towards the leukemia subpanel and the least one was towards the colon cancer subpanel. […] The strongest activity was towards the melanoma subpanel and the least one was towards the colon cancer subpanel.
All cell lines were published before.

[4] = tested on: SW-620; test: NCI-60 cytotoxicity screen; type: cell-based
[5] = tested on: MDA-MB-231; test: JFCR-39 cytotoxicity screen; type: cell-based
[6] = tested on: OVCAR-4; test: NCI-60 cytotoxicity screen; type: cell-based
[7] = tested on: NCI-H522; test: JFCR-39 cytotoxicity screen; type: cell-based
[8] = tested on: UACC-62; test: NCI-60 cytotoxicity screen; type: cell-based
[9] = tested on: MKN28; test: JFCR-39 cytotoxicity screen; type: cell-based
[10] = tested on: ACHN; test: NCI-60 cytotoxicity screen; type: cell-based
[11] = tested on: DU-145; test: JFCR-39 cytotoxicity screen; type: cell-based
[12] = tested on: SK-MEL-5; test: NCI-60 cytotoxicity screen; type: cell-based
[13] = tested on: NF-κB p65 subunit translocation in OVCAR-3 cells; test: NF-κB inhibition by immunocytochemical fluorescent staining; type: cell-based, human; conditions: 5 μM
Experimental: Inhibition of NF-κB was detected according to Ataie-Kachoie et al.. Briefly, each group of tested cells were seeded on coverslips treated with HCl and ethanol, and autoclaved prior to use. Immunostaining of the p65 subunit of NF-κB was done by permeabilizing the cells with Triton […], then by treating the cells with anti-NF-κB p65 rabbit monoclonal primary antibody [E379] Abcam # ab32536, followed by Alexa Fluor® 488 Donkey anti-rabbit IgG secondary antibody Biolegend # 406416. Nuclei of cells were stained with 4',6-diamidino-2-phenylindole (DAPI). Images were acquired using fluorescence microscope. Tested cells were divided into five groups which are no treatment control, no primary antibody control, PDTC (50 μM) treated control, NSC745885 (5 μM) and NSC757963 (5 μM) treated controls.

[14] = tested on: OVCAR-5; test: JFCR-39 cytotoxicity screen; type: cell-based
[15] = tested on: COLO 205; test: NCI-60 cytotoxicity screen; type: cell-based
[16] = tested on: OVCAR-3; test: cells; conditions: Homo sapiens, OVCAR-3, read-out: mean log10 of the GI50 values (converted)
[17] = tested on: SK-MEL-2; test: NCI-60 cytotoxicity screen; type: cell-based
[18] = tested on: OVCAR-5; test: NCI-60 cytotoxicity screen; type: cell-based
[19] = tested on: RXF 393; test: NCI-60 cytotoxicity screen; type: cell-based
[20] = tested on: TK-10; test: NCI-60 cytotoxicity screen; type: cell-based
[21] = Homo sapiens, read-out: LC50 (the source's name)
[22] = Homo sapiens, Fig 7, read-out: mean log10 of the GI50 values (converted)
[23] = Homo sapiens, five-dose, read-out: GI50
[24] = Homo sapiens, five-dose, read-out: LC50 (the source's name)

O=C1c2ccccc2C(=O)c2c1cc(Cl)c1nsnc21 [NSC757963]
TGI [1]: 3.9 µM
GI50 ([1]; Homo sapiens, U-251): 1900 nM
CC50 ([1]; Homo sapiens, U-251, read-out: LC50 (the source's name)): 8.1 µM
TGI [2]: 4.1 µM
GI50 ([2]; Homo sapiens): 1900 nM
CC50 [2, 21]: 8.7 µM
selectivity ratios of the NCI subpanels other than leukemia [3]: less than 3
GI50 ([3]; Fig 7, read-out: MG-MID of mean log10 GI50 (converted)): 4.47 µM
GI50 ([3]; NCI Breast Cancer, read-out: Mean GI50 of subpanel): 5.11 µM
GI50 ([3]; NCI CNS Cancer, read-out: Mean GI50 of subpanel): 7.71 µM
GI50 ([3]; NCI Colon Cancer, read-out: Mean GI50 of subpanel): 11.4 µM
GI50 ([3]; NCI Leukemia, read-out: Mean GI50 of subpanel): 1.4 µM
GI50 ([3]; NCI Melanoma, read-out: Mean GI50 of subpanel): 8.44 µM
GI50 ([3]; NCI Non-Small Cell Lung Cancer, read-out: Mean GI50 of subpanel): 20.7 µM
GI50 ([3]; NCI Ovarian Cancer, read-out: Mean GI50 of subpanel): 6.77 µM
GI50 ([3]; NCI Prostate Cancer, read-out: Mean GI50 of subpanel): 8.53 µM
GI50 ([3]; NCI Renal Cancer, read-out: Mean GI50 of subpanel): 18.5 µM
GI50 ([3]; all NCI subpanels, read-out: mean GI50 values of the NCI 60 subpanels, range): 1.4 to 20.7 µM
GI50 ([3]; equivalent to MID, read-out: Mean GI50 of all NCI-60 cell line panels): 10.9 µM
GI50 ([3]; five-dose, read-out: NCI-60 GI50 values, range over cell lines): 0.33 to 72.8 µM
Selectivity ratio ([3]; NCI Breast Cancer): 2.14
Selectivity ratio ([3]; NCI CNS Cancer): 1.41
Selectivity ratio ([3]; NCI Colon Cancer): 0.96
Selectivity ratio ([3]; NCI Leukemia): 7.79
Selectivity ratio ([3]; NCI Melanoma): 1.29
Selectivity ratio ([3]; NCI Non-Small Cell Lung Cancer): 0.53
Selectivity ratio ([3]; NCI Ovarian Cancer): 1.61
Selectivity ratio ([3]; NCI Prostate Cancer): 1.28
Selectivity ratio ([3]; NCI Renal Cancer): 0.59
GI50 [4, 22]: 2510 nM
GI50 [4, 23]: 2870 nM
CC50 [4, 24]: 58.7 µM
TGI ([4]; five-dose): 10.4 µM
TGI [5]: 2.9 µM
GI50 ([5]; Homo sapiens): 1300 nM
CC50 [5, 21]: 6.4 µM
GI50 [6, 22]: 1660 nM
GI50 [6, 23]: 1460 nM
CC50 [6, 24]: 5.5 µM
TGI ([6]; five-dose): 2.83 µM
TGI [7]: 3.6 µM
GI50 ([7]; Homo sapiens): 1800 nM
CC50 [7, 21]: 7.3 µM
GI50 [8, 22]: 3.47 µM
GI50 [8, 23]: 4.43 µM
CC50 [8, 24]: 41.8 µM
TGI ([8]; five-dose): 17.0 µM
TGI [9]: 4.4 µM
GI50 ([9]; Homo sapiens, MKN-28): 2200 nM
CC50 ([9]; Homo sapiens, MKN-28, read-out: LC50 (the source's name)): 8.6 µM
GI50 [10, 22]: 2000 nM
GI50 [10, 23]: 2000 nM
CC50 [10, 24]: 7.74 µM
TGI ([10]; five-dose): 3.93 µM
TGI [11]: 6.3 µM
GI50 ([11]; Homo sapiens): 2500 nM
CC50 [11, 21]: 23 µM
GI50 [12, 22]: 6.92 µM
GI50 [12, 23]: 8.48 µM
CC50 [12, 24]: 46.2 µM
TGI ([12]; five-dose): 21.0 µM
nuclear translocation of the NF-κB p65 subunit [13]: significantly capable of preventing the nuclear translocation of the NF-κB p65 subunit
TGI [14]: 3.0 µM
GI50 ([14]; Homo sapiens): 1600 nM
CC50 [14, 21]: 5.5 µM
GI50 ([15]; Homo sapiens, COLO205, Fig 7, read-out: mean log10 of the GI50 values (converted)): 14.1 µM
GI50 [15, 23]: 16.9 µM
CC50 [15, 24]: 57.9 µM
TGI ([15]; five-dose): 31.2 µM
GI50 [16]: 1860 nM
GI50 [17, 22]: 2090 nM
GI50 [17, 23]: 2210 nM
CC50 [17, 24]: 37.7 µM
TGI ([17]; five-dose): 5.77 µM
GI50 [18, 22]: 17.4 µM
GI50 [18, 23]: 17.6 µM
CC50 [18, 24]: 56.8 µM
TGI ([18]; five-dose): 31.6 µM
GI50 ([19]; Homo sapiens, RXF393, Fig 7, read-out: mean log10 of the GI50 values (converted)): 1860 nM
GI50 [19, 23]: 2170 nM
CC50 [19, 24]: 27.1 µM
TGI ([19]; five-dose): 7.21 µM
GI50 [20, 22]: 22.9 µM
GI50 [20, 23]: 24.1 µM
CC50 [20, 24]: 64.1 µM
TGI ([20]; five-dose): 39.3 µM
